Test results published in patent publication US20230330059A1, “3-PHENYL-2H-CHROMENE DERIVATIVE AND PHARMACEUTICAL COMPOSITION FOR PREVENTING OR TREATING ALZHEIMER'S, CONTAINING SAME” (NEUROBIONET, INC., priority 2020, published 2023).

Tested on: primary microglial cells treated with beta amyloid oligomer (AB1-40)
Assay: Cell viability of primary microglia treated with beta amyloid oligomer
Type: cell-based, ICR mice
Details: 5 µM for 1 hour, then AB1-40 10 µM 24 hours; FIG. 15
Procedure: Mouse-derived microglia (BV2 cells) purchased from the Korean Cell Line Bank were seeded at a density of 4x10^5 cells/well into 96-well plates, each well containing DMEM (Dulbecco’s Modified Eagle’s Media) supplemented with 10% FBS and 1% antibiotics, and stabilized by incubation for 24 hours. Thereafter, the cells were treated for 24 hours with various concentrations (0.5, 1, and 5 µM) of daidzein, o-desmethylangolensin (O-DMA), S-equal, SPA1413, and SPA1426. After removal of the medium, the cells were treated 0.5 mg/ml 3-(4,5-dimethylthiazol-2-yl)-2,5-diphenyltetrazolium bromide (MTT) solution 1 hour. The reduced formazan was dissolved in 150 µl of dimethyl sulfoxide (DMSO) and absorbance was read at 570 nm in a microspectrophotometer to determine cell viability. Cell viability of the cells treated with each sample was determined relative to that of the untreated normal control (Control), which was set to be 100%, and the results are depicted in FIGS. 3 and 4 (upper).
Primary microglial cells isolated from the brain of 1-year-old ICR mice were seeded at a density of 2x10^5 cells/well into 96-well plates and stabilized for 24 hours. Thereafter, the cells were treated with 5 µM of daidzein, S-equal, SPA1413, or SPA1426 for 1 hour and then with beta amyloid oligomer (AB1-40, 10 µM) for 24 hours at 37° C. Cell viability was assayed in the same manner as in Experimental Example 2.

SMILES: Oc1ccc(C2=Cc3ccc(O)cc3OC2)cc1 [SPA1413, 3-(4-Hydroxyphenyl)-2H-chromen-7-ol]
- cell viability after beta amyloid oligomer treatment: significantly increased in cell viability
